Among the data in ChEMBL document CHEMBL1649420, “Identifying chelators for metalloprotein inhibitors using a fragment-based approach” (J Med Chem, 2011) are inhibition values, retold here.

Each structure is given as a SMILES string.

As usually defined, the inhibition is the drop in the measured response relative to a control, in per cent.

The target of assay [1] is T1, Polyunsaturated fatty acid 5-lipoxygenase (Homo sapiens) (UniProt P09917).
T1 sequence (whole entry): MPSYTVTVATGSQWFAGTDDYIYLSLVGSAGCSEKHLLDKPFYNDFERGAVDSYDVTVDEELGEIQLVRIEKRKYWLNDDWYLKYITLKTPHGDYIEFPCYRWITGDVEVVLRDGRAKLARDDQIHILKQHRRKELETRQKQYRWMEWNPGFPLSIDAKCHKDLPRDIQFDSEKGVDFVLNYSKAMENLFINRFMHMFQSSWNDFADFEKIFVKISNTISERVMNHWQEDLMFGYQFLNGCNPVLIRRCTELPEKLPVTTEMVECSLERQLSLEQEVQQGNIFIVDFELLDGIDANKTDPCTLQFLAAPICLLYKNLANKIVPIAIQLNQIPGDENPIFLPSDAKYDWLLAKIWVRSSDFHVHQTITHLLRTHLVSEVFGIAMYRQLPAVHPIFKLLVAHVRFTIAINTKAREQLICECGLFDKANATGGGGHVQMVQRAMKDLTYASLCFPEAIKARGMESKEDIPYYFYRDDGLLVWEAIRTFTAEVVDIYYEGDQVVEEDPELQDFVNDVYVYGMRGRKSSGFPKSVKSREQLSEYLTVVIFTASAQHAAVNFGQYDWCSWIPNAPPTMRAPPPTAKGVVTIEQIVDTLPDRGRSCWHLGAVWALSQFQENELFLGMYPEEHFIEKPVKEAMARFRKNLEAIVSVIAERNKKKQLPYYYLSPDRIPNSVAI
The experiment in a line: Inhibition of human recombinant 5-lipoxygenase at 1 mM after 10 mins by fluorescence assay.

Assay [2] has as its target 72 kDa type IV collagenase (Homo sapiens, UniProt P08253). As to conditions: at 1 mM.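 Also: recombinant human enzyme, inhibition read after a 30 min incubation.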
Assay [3] has as its target Neutrophil collagenase (Homo sapiens) (UniProt P22894). The conditions noted are these: at 1 mM.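 Also: recombinant human MMP8 enzyme, percent inhibition read after 30 min.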
The target of assay [4] is T2, Interstitial collagenase (Homo sapiens) (UniProt P03956).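 Also: recombinant human enzyme, with inhibition measured after 30 min.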
T2 sequence (whole entry): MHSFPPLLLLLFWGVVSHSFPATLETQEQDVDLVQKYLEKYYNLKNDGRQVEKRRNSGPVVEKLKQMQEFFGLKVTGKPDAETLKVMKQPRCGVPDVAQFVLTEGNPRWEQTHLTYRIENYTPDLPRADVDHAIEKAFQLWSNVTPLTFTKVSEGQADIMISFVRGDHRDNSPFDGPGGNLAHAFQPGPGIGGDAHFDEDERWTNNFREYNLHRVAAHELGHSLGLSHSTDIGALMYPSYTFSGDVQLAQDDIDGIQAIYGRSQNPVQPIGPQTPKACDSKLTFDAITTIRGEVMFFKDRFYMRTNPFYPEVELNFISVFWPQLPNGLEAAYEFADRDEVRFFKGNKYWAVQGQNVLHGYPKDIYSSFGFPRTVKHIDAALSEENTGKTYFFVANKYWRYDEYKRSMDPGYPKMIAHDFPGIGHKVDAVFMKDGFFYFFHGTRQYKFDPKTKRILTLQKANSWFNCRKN
As to conditions: at 1 mM.

The target of assay [5] is T3, Lethal factor (Bacillus anthracis) (UniProt P15917).
T3 sequence (whole entry): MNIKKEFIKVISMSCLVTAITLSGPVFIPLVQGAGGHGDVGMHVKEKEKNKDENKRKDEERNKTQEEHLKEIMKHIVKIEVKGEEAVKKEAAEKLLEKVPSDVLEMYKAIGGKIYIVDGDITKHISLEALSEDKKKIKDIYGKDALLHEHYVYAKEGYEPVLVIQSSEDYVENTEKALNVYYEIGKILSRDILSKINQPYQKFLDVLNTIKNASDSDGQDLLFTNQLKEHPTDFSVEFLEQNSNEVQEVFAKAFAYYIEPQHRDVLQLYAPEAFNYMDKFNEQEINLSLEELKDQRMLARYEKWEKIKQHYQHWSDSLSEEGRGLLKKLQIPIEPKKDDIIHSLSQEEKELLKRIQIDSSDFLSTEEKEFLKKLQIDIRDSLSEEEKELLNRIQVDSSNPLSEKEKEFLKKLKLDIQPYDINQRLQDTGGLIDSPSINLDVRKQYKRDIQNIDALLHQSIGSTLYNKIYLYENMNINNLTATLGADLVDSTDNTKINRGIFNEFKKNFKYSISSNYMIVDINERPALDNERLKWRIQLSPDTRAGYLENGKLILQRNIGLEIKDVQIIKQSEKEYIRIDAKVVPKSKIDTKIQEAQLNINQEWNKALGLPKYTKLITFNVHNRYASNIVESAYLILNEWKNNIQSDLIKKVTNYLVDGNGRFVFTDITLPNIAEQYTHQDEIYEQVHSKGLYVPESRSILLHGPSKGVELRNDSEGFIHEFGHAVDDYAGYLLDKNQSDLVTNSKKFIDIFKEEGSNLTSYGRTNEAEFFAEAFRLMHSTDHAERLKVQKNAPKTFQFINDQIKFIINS
The conditions noted are these: at 1 mM.

Assay [6] addresses Matrix metalloproteinase-9 (Homo sapiens) (UniProt P14780). The conditions noted are these: at 1 mM.
Assay [7] concerns the target Stromelysin-1 (Homo sapiens) (UniProt P08254). The conditions noted are these: at 1 mM.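 Also: recombinant enzyme, inhibition read after a 30 min incubation.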
For assay [8], the target named is T4, Tyrosinase (Agaricus bisporus) (UniProt O42713).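 Also: inhibition measured at 10 min.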
T4 sequence (whole entry): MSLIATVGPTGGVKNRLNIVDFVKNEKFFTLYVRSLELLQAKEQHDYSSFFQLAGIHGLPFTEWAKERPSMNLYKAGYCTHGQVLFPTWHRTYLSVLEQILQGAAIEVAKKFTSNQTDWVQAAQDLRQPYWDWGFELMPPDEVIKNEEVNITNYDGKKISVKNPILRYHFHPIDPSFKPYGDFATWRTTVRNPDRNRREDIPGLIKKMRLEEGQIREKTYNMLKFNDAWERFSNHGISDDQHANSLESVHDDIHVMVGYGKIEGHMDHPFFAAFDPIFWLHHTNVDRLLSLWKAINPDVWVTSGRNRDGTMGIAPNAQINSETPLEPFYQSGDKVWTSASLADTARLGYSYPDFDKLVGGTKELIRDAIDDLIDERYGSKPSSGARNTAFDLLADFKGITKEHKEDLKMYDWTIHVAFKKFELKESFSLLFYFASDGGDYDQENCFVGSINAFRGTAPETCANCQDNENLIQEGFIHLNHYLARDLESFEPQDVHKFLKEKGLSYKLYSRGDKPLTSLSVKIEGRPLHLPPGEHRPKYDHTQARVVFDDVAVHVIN
As to conditions: at 1 mM.

Chain of Stromelysin-1 (Homo sapiens) (P08254 100-477 limits assumed): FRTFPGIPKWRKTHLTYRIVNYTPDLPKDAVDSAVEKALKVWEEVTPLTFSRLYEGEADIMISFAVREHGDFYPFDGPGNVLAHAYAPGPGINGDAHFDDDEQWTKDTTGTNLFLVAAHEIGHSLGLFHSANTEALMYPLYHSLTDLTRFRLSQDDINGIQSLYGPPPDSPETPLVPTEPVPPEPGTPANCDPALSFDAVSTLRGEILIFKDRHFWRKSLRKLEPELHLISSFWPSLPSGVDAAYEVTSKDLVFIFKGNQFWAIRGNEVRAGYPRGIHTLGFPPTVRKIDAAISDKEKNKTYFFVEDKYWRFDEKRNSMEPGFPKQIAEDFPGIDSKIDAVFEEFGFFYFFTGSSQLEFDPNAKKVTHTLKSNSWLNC
Chain of 72 kDa type IV collagenase (P08253 110-660 limits assumed): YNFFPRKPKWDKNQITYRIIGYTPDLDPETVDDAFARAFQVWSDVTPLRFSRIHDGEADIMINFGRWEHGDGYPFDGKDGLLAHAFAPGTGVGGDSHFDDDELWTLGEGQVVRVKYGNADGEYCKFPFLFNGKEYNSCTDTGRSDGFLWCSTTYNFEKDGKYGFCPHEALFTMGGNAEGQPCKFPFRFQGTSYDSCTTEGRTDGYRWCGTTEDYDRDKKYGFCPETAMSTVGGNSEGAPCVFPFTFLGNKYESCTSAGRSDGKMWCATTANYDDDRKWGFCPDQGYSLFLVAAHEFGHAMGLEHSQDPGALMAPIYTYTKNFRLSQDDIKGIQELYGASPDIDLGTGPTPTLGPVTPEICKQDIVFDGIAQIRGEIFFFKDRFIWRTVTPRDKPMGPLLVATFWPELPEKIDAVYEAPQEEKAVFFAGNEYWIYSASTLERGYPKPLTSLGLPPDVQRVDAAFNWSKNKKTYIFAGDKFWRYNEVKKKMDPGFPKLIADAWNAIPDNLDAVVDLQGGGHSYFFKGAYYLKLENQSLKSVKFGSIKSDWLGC
Chain of Matrix metalloproteinase-9 (Homo sapiens) (P14780 whole entry): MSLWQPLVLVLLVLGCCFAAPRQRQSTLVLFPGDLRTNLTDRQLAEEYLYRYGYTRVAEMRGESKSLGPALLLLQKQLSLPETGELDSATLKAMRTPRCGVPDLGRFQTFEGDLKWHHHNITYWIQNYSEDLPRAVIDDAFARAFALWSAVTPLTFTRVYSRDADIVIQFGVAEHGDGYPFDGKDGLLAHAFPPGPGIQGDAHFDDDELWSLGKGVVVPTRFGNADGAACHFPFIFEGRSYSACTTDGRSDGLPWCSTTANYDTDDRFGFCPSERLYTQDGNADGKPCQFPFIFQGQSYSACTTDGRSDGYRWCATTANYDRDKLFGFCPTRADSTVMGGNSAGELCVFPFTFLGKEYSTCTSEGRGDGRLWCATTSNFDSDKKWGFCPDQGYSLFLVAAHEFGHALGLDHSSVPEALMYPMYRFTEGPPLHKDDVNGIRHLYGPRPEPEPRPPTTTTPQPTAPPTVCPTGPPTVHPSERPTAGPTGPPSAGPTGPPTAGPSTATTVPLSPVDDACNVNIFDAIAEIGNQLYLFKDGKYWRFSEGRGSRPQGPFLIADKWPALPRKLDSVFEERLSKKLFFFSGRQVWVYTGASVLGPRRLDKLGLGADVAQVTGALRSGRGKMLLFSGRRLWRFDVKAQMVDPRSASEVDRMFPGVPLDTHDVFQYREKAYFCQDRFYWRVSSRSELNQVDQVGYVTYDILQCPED
Chain of Neutrophil collagenase (Homo sapiens) (P22894 101-467 limits assumed): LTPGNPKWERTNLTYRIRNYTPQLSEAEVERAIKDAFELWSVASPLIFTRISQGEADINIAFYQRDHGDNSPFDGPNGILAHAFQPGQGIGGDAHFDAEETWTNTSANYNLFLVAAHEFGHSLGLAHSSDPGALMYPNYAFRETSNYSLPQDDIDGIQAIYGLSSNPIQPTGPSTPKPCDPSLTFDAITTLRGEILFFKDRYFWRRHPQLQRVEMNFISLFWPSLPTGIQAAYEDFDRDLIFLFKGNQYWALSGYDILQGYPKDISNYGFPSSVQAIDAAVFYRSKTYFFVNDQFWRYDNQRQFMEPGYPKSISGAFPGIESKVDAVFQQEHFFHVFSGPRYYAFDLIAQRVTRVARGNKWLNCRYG

In the case of `Nc1ccc(C(=O)O)c(O)c1`, the inhibition was 60% in assay [1]; -1% in assay [2]; 8% in assay [3]; -7% in assay [4]; 30% in assay [5]; 24% in assay [6]. In addition, the inhibition in assay [7] came to 4%; in assay [8], 55%.

As for `CCCCc1ccc(C(=O)O)nc1`, the inhibition in assay [1] was determined as 23%; in assay [2] it was 43%; in assay [3], 47%; in assay [4], 58%; in assay [5], 29%; in assay [6], 18%. Also, the inhibition was found to be 80% in assay [7] and 75% in assay [8].

As for `Oc1ncccn1`, the inhibition was 8% in assay [1]; 24% in assay [2]; 100% in assay [3]; 100% in assay [4]; 28% in assay [5]; 51% in assay [6]. The inhibition in assay [7] is 49%; in assay [8], 92%.

As for `O=c1cc(CCl)occ1O`, the inhibition stood at 87% in assay [1]; 65% in assay [2]; 59% in assay [3]; 67% in assay [4]; 30% in assay [5]; 42% in assay [6]. In addition, the inhibition stood at 68% in assay [7] and 94% in assay [8].

As to `Cc1ccc(S(N)(=O)=O)cc1`, the inhibition in assay [1] is 25%; in assay [2], -2%; in assay [3], 9%; in assay [4], 11%; in assay [5] it was 6%; in assay [6], -7%. Further, the figures for the inhibition in assay [7] and in assay [8] were -5% and 70%, respectively.

In the case of `Cc1cccc(C(=O)O)c1O`, the inhibition in assay [1] stood at 22%; in assay [2], 1%; in assay [3] it was 18%; in assay [4] it was 10%; in assay [5], 8%; in assay [6], 14%. The inhibition in assay [7] amounted to 13%; in assay [8] it was 96%.

On to `Cn1cccc(O)c1=O`, for which the inhibition in assay [1] worked out at 88%; in assay [2] it was 4%; in assay [3] it was 13%; in assay [4] it was 17%; in assay [5], 1%; in assay [6], 8%. The figures for the inhibition in assay [7] and in assay [8] were -3% and -6%, respectively.

`[O-][n+]1cccc2cccc(O)c21`: the inhibition in assay [1] is 66%; in assay [2] it was 62%; in assay [3] it was 64%; in assay [4], 70%; in assay [5] it was 59%; in assay [6], 67%. For the same compound, the values for the inhibition in assay [7] and in assay [8] were 81% and 29%, respectively.

Take `Cc1ccc(O)c(C(=O)O)c1`: the inhibition in assay [1] was 17%; in assay [2], 65%; in assay [3], 26%; in assay [4], 28%; in assay [5], 56%; in assay [6], 2%. Besides, the values for the inhibition in assay [7] and in assay [8] were 76% and 98%, respectively.

Take `CCn1ccc(=O)c(O)c1C`: the inhibition in assay [1] turned out to be 80%; in assay [2], 16%; in assay [3] it was 29%; in assay [4], 19%; in assay [5], 10%; in assay [6], 10%. Moreover, the inhibition in assay [7] is -8%; in assay [8], 9%.

Consider `Cc1nc(O)nc(O)c1C`, for which the inhibition in assay [1] was 33%; in assay [2] it was 5%; in assay [3], 2%; in assay [4], 11%; in assay [5], 28%; in assay [6], -4%. The inhibition in assay [7] came to 10%; in assay [8], 32%.

As for `O=c1ccocc1O`, the inhibition in assay [1] turned out to be 81%; in assay [2], 48%; in assay [3] it was 43%; in assay [4] it was 48%; in assay [5], 29%; in assay [6], 45%. Also, the inhibition in assay [7] was 35%; in assay [8] it was 38%.

Consider `Nc1[nH]cnc2ncnc1-2`, for which the inhibition was 9% in assay [1]; -1% in assay [2]; 9% in assay [3]; 17% in assay [4]; 16% in assay [5]; -3% in assay [6]. The inhibition in assay [7] was determined as 10%; in assay [8], 11%.

For `O=C(O)c1ccccn1`, the inhibition turned out to be 16% in assay [1]; 25% in assay [2]; 30% in assay [3]; 3% in assay [4]; 49% in assay [5]; 0% in assay [6]. The inhibition was 99% in assay [7] and 74% in assay [8].

Take `C1CNCCNCCN1`: the inhibition in assay [1] turned out to be 25%; in assay [2] it was 100%; in assay [3] it was 104%; in assay [4] it was 105%; in assay [5], 59%; in assay [6], 100%. Also, the inhibition was found to be 48% in assay [7] and 68% in assay [8].

For the compound `O=C(O)c1cccc(Br)n1`, the inhibition is 29% in assay [1]; -4% in assay [2]; 1% in assay [3]; 11% in assay [4]; 75% in assay [5]; 4% in assay [6]. Also, the inhibition in assay [7] came to 18%; in assay [8], 90%.

Regarding `O=C(O)c1cccc[n+]1[O-]`, the inhibition in assay [1] came to 31%; in assay [2] it was 1%; in assay [3] it was 21%; in assay [4], 10%; in assay [5] it was 40%; in assay [6] it was 8%. The inhibition came to 18% in assay [7] and 88% in assay [8].
